Experimental findings from patent US9409922B2, “Imidazopyridine macrocycles as inhibitors of human immunodeficiency virus replication” (priority 2014, dated 2016) are described below.

One experiment concerns NL-RLuc virus. Nature of the experiment: Inhibition of HIV replication: NL-RLuc reporter virus in MT-2 cells, luciferase readout. Conditions: Human immunodeficiency virus 1, MT2, 120 h, MT-2 cells infected with NL-RLuc virus, 5 days of incubation, 10% FBS, at least 2 experiments. Format: cell-based. Put shortly: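 Renilla luciferase reporter virus (NL4-3 nef replaced), produced in 293T cells, infected MT-2 cells with serial compound dilutions for 5 days in RPMI 1640 with 10% FBS, 10 mM HEPES pH 7.55. Luciferase measured; EC50 from median effect equation, at least 2 experiments.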
The EC50 is the concentration at which the effect is half-maximal. Read a low EC50 as greater potency. `Cc1c([C@H](OC(C)(C)C)C(=O)O)c2n3cc(nc3c1CO)-c1cccc(c1)-c1cc(F)ccc1O[C@@H](C)CCCCOC1(C)CCN2CC1` [Example 53, (2S)-2-(tert-Butoxy)-2-[(22S)-17-fluoro-5-(hydroxymethyl)-4,22,28-trimethyl-21,27-dioxa-1,7,34-triazahexacyclo[26.2.2.1^6,^9.1^10,^14.0^2,^7.0^15,^20]tetratriaconta-2,4,6(34),8,10(33),11,13,15(20),16,18-decaen-3-yl]acetic acid] returned an EC50 of 0.008 µM.

With `Cc1c([C@H](OC(C)(C)C)C(=O)O)c2n3cc(nc3c1CO)-c1cccc(c1)-c1c(ccc(F)c1F)O[C@@H](C)CCCCOC1(C)CCN2CC1` [Example 54, (2S)-2-(tert-Butoxy)-2-[(22S)-16,17-difluoro-5-(hydroxymethyl)-4,22,28-trimethyl-21,27-dioxa-1,7,34-triazahexacyclo[26.2.2.1^6,^9.1^10,^14.0^2,^7.0^15,^20]tetratriaconta-2,4,6(34),8,10(33),11,13,15(20),16,18-decaen-3-yl]acetic acid], the EC50 worked out at 0.004 µM. Same read-out and setting: the value for `CCc1c(C)c([C@H](OC(C)(C)C)C(=O)O)c2n3cc(nc13)-c1cccc(c1)-c1cc(F)ccc1O[C@@H](C)CCCCOC1(C)CCN2CC1` [Example 55, (2S)-2-(tert-Butoxy)-2-[(22S)-5-ethyl-17-fluoro-4,22,28-trimethyl-21,27-dioxa-1,7,34-triazahexacyclo[26.2.2.1^6,^9.1^10,^14.0^2,^7.0^15,^20]tetratriaconta-2,4,6(34),8,10(33),11,13,15(20),16,18-decaen-3-yl]acetic acid] was 0.009 µM; that for `Cc1c([C@H](OC(C)(C)C)C(=O)O)c2n3cc(nc3c1C(C)C)-c1cccc(c1)-c1cc(F)ccc1O[C@@H](C)CCCCOC1(C)CCN2CC1` [Example 56, (2S)-2-(tert-Butoxy)-2-[(22S)-17-fluoro-4,22,28-trimethyl-5-(propan-2-yl)-21,27-dioxa-1,7,34-triazahexacyclo[26.2.2.1^6,^9.1^10,^14.0^2,^7.0^15,^20]tetratriaconta-2,4,6(34),8,10(33),11,13,15(20),16,18-decaen-3-yl]acetic acid] was 0.072 µM; that for `CCc1c(C)c([C@H](OC(C)(C)C)C(=O)O)c2n3cc(nc13)-c1cccc(c1)-c1cc(F)c(F)cc1O[C@@H](C)CCCCOC1(C)CCN2CC1` [Example 57, (2S)-2-(tert-Butoxy)-2-[(22S)-5-ethyl-17,18-difluoro-4,22,28-trimethyl-21,27-dioxa-1,7,34-triazahexacyclo[26.2.2.1^6,^9.1^10,^14.0^2,^7.0^15,^20]tetratriaconta-2,4,6(34),8,10(33),11,13,15(20),16,18-decaen-3-yl]acetic acid] was 0.013 µM. The same measure, in the same setting: the value for `Cc1c([C@H](OC(C)(C)C)C(=O)O)c2n3cc(nc3c1Cl)-c1cccc(c1)-c1cc(F)ccc1O[C@@H](C)CCCCOC1(C)CCN2CC1` [Example 61, (2S)-2-(tert-Butoxy)-2-[(22S)-5-chloro-17-fluoro-4,22,28-trimethyl-21,27-dioxa-1,7,34-triazahexacyclo[26.2.2.1^6,^9.1^10,^14.0^2,^7.0^15,^20]tetratriaconta-2,4,6(34),8,10(33),11,13,15(20),16,18-decaen-3-yl]acetic acid] was 0.015 µM.

Still in this experiment, the particulars now being: MT-2 cells infected with NL-RLuc virus, 5 days of incubation, 10% FBS, at least 2 experiments.
`Cc1c([C@H](OC(C)(C)C)C(=O)O)c2n3cc(nc3c1C(C)O)-c1cccc(c1)-c1c(ccc(F)c1F)O[C@@H](C)CCCCOC1(C)CCN2CC1` (stereo partly drawn) [Example 50, (2S)-2-(tert-Butoxy)-2-[(22S)-16,17-difluoro-5-(1-hydroxyethyl)-4,22,28-trimethyl-21,27-dioxa-1,7,34-triazahexacyclo[26.2.2.1^6,^9.1^10,^14.0^2,^7.0^15,^20]tetratriaconta-2,4,6(34),8,10(33),11,13,15(20),16,18-decaen-3-yl]acetic acid]: the EC50 came out at 0.01 µM.
